Results on 43 compounds are retold here after ChEMBL document CHEMBL3392952, “Structure guided lead generation for M. tuberculosis thymidylate kinase (Mtb TMK): discovery of 3-cyanopyridone and 1,6-naphthyridin-2-one as potent inhibitors” (J Med Chem, 2015).

Each structure is given as a SMILES string. ≈ marks a conversion by molar mass, not a printed value. Calls of active or inactive are those of the source. The rule behind the calls is not given here.

The target of series [1] is T1, Thymidylate kinase (Mycobacterium tuberculosis, UniProt P9WKE1).
T1 sequence (P9WKE1 whole entry): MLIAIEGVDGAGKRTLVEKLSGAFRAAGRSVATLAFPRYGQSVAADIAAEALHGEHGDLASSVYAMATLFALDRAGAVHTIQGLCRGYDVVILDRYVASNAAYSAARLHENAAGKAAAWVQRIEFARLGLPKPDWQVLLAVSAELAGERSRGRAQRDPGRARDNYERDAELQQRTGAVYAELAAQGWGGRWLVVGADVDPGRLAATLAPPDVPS
As to the kind of experiment: Inhibition of Mycobacterium tuberculosis thymidylate kinase activity by pyruvate kinase-lactate dehydrogenase coupled assay.

Series [2] concerns the target T2, Thymidylate kinase (Homo sapiens) (UniProt P23919).
T2 sequence (whole entry): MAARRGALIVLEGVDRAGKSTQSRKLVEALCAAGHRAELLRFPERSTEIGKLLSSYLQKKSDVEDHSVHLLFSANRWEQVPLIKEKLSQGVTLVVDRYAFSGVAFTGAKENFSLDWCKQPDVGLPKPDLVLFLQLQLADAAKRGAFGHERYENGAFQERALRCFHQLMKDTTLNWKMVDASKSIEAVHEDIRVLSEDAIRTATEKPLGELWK
As to the kind of experiment: Inhibition of human thymidylate kinase assessed as […] up to 200 uM.

The nature of series [3]: Dissociation constant, pKa of the compound. The class given is physicochemical.
For series [4], the system named is Mycobacterium tuberculosis. Description: Antitubercular activity against Mycobacterium tuberculosis assessed as growth inhibition […] by standard microdilution method. The class given is functional. On the technique in general: Dilution methods test growth across graded concentrations, often in twofold steps.
Series [5] relates to Staphylococcus aureus. As to the kind of experiment: Inhibition of Staphylococcus aureus thymidylate kinase.
In series [6] the test system is Haemophilus influenzae. As to the kind of experiment: Inhibition of Haemophilus influenza thymidylate kinase.
The subject of series [7] is Escherichia coli. Description: Inhibition of Escherichia coli thymidylate kinase.

A word on the IC50: it is the concentration that inhibits the measured activity by half. A lower IC50 goes with greater potency. Turning to `CSc1cc(-c2cccs2)[nH]c(=O)c1C#N`, inhibition in series [1] was half-maximal at 3600 nM (IC50).
The pKa is the negative logarithm of the acid dissociation constant. For orientation: MIC means the lowest concentration found to suppress growth. Regarding `CS(=O)(=O)NC(=O)c1ccc(-c2c3c([nH]c(=O)c2C#N)-c2ccccc2OC3)cc1`, the outcome in series [2] was inactive. Besides, the pKa in series [3] was found to be 3.9. Also, inhibition in series [1] was half-maximal at 5 nM (IC50). In addition, the MIC in series [4] is > 32 µg/mL.
With `COc1cccc(-c2nc(SC)c(C#N)c(=O)[nH]2)c1`, the IC50 in series [1] worked out at 8000 nM.
Consider `CS(=O)(=O)c1cc(-c2cccc(Br)c2)[nH]c(=O)c1`, for which the half-inhibitory concentration (IC50) in series [1] is > 25000 nM. The MIC in series [4] is > 32 µg/mL.
The compound `N#Cc1c(-c2ccc(C(=O)NS(=O)(=O)c3ccccc3)cc2)c2c([nH]c1=O)-c1ccccc1OC2` displayed a pKa in series [3] of 5. This compound displayed an IC50 in series [1] of 2 nM. For the same compound, the MIC in series [4] was > 32 µg/mL.
`COc1cccc(-c2cc(-c3ccc(C(=O)O)cc3)c(C)c(=O)[nH]2)c1` came in with an IC50 in series [1] of 1200 nM.
Regarding `C[S+]([O-])c1cc(-c2cccc(OC(F)(F)F)c2)[nH]c(=O)c1C#N` (stereo not given), the outcome in series [2], in series [5], in series [6] and in series [7] was inactive. In series [1], this compound gave an IC50 of 240 nM. In addition, the minimum inhibitory concentration (MIC) in series [4] stood at 8 µg/mL (≈ 23.4 µM).
For the compound `CC(C)CCOc1cccc(-c2cc([S+](C)[O-])c(C#N)c(=O)[nH]2)c1` (stereo not given), the half-maximal inhibitory concentration (IC50) in series [1] was 330 nM. The minimum inhibitory concentration (MIC) in series [4] turned out to be 4 µg/mL (≈ 11.6 µM).
Compound `CS(=O)(=O)c1cc(-c2cccc(Br)c2)[nH]c(=O)c1C#N` had a 50% inhibitory concentration (IC50) in series [1] of 100 nM. In addition, the MIC in series [4] worked out at 8 µg/mL (≈ 22.7 µM).
The corresponding values for `CS(=O)(=O)c1cc(-c2cccc(OCc3cccc(Cl)c3)c2)[nH]c(=O)c1C#N` are 22 nM and 4 µg/mL (≈ 9.64 µM).
Compound `N#Cc1c(-c2ccc(C(=O)O)cc2)c2c([nH]c1=O)-c1cccc(-c3cn[nH]c3)c1CC2` showed a pKa in series [3] of 4.4. This compound gave an IC50 in series [1] of 2 nM. Further, in series [4], the MIC was > 32 µg/mL.
Regarding `CS(=O)(=O)c1c2c([nH]c(=O)c1C#N)-c1ccccc1OC2`, it took 30000 nM to reach half-maximal inhibition in series [1] (IC50). Besides, the MIC in series [4] came to 32 µg/mL (≈ 106 µM).
`COc1cccc(-c2cc(-c3cccnc3)c(C#N)c(=O)[nH]2)c1`: in series [1], the IC50 stood at 2630 nM.
Still for that read-out and setting: as for `CSc1cc(-c2cccc(Cl)c2)[nH]c(=O)c1C#N`, the figure is 1900 nM.
The compound `C[S+]([O-])c1cc(-c2cccs2)[nH]c(=O)c1C#N` (stereo not given) showed an IC50 in series [1] of 820 nM. For the same compound, the minimum inhibitory concentration (MIC) in series [4] was 12 µg/mL (≈ 45.4 µM).
On to `COc1cccc(-c2cc(SC)c(C#N)c(=O)[nH]2)c1`, for which the result in series [2] was inactive. The compound further registered an IC50 in series [1] of 1500 nM.
Compound `CCCc1cc2[nH]c(=O)c(C#N)c(-c3ccc(NS(C)(=O)=O)cc3)c2c(C)n1` showed a concentration for half-maximal inhibition (IC50) in series [1] of 2100 nM. In series [4], the minimal inhibitory concentration (MIC) was > 32 µg/mL.
As for `COc1ccccc1-c1cc(SC)c(C#N)c(=O)[nH]1`, in series [1], the IC50 was > 50000 nM.
Compound `CCc1cc2[nH]c(=O)c(C#N)c(-c3ccc(NS(C)(=O)=O)cc3)c2c(C)n1` came in with a concentration for half-maximal inhibition (IC50) in series [1] of 200 nM. In series [4], the MIC is > 32 µg/mL.
For the compound `Cc1nccc2nc(O)c(C#N)cc12`, half-maximal inhibition in series [1] (IC50) required 634000 nM.
On the same count and under the same terms, as for `N#Cc1c(-c2ccc(C(=O)O)cc2)c2c([nH]c1=O)-c1ccccc1CC2`, the figure is 6 nM.
For `CCNC(=O)Nc1ccc(-c2cc(-c3cccc(OC)c3)[nH]c(=O)c2C#N)cc1`, in series [2], the result was inactive. The same compound gave an IC50 in series [1] of 250 nM.
Turning to `COc1cccc(-c2cc(-c3ccc(N)cc3)c(C#N)c(=O)[nH]2)c1`, the IC50 in series [1] was found to be 1010 nM.
The same measure, in the same setting: as for `CC(C)c1ccc(COc2cccc(-c3cc(-c4ccc(C(=O)O)cc4)c(C#N)c(=O)[nH]3)c2)cc1`, the figure is 6 nM; as for `CSc1cc(-c2cccs2)oc(=O)c1C#N`, > 50000 nM.
Still for that read-out and setting: as for `CCCc1cc2[nH]c(=O)ccc2c(C)n1`, the figure is 590000 nM; as for `COc1cccc(-c2cc(-c3cccc(C(=O)O)c3)c(C#N)c(=O)[nH]2)c1`, 2730 nM.
In series [1], `CCNC(=O)Nc1ccc(-c2c3c([nH]c(=O)c2C#N)-c2cccc(OC)c2CC3)cc1` yielded an IC50 of 17 nM. Also, the MIC in series [4] was > 32 µg/mL.
For `CCCc1cc2[nH]c(=O)c(C#N)c(-c3ccccc3)c2c(C)n1`, in series [1], half-maximal inhibition (IC50) required 1000 nM. Also, in series [4], the MIC was > 32 µg/mL.
Regarding `COc1cccc(-c2cc(-c3ccc(C(=O)O)cc3)c(C#N)c(=O)[nH]2)c1`, the IC50 in series [1] worked out at 420 nM.
In series [3], `COc1cccc2c1CCc1c-2[nH]c(=O)c(C#N)c1-c1ccc(C(=O)O)cc1` yielded a pKa of 4.4. This compound came in with a half-inhibitory concentration (IC50) in series [1] of 5 nM. In addition, the MIC in series [4] was > 32 µg/mL.
Consider `CCc1cc2[nH]c(=O)c(C)c(C)c2c(CC)n1`, for which the IC50 in series [1] was 133000 nM.
`C[S+]([O-])c1cc(-c2cccc(Br)c2)[nH]c(=O)c1C#N` (stereo not given): the outcome in series [5], in series [6] and in series [7] was inactive. The same compound had an IC50 in series [1] of 140 nM. Also, the minimal inhibitory concentration (MIC) in series [4] came out at 4 µg/mL (≈ 11.9 µM).
In turn, `COc1ccc(-c2cc(SC)c(C#N)c(=O)[nH]2)cc1` returned an IC50 in series [1] of 7700 nM.
`CC(C)c1ccc(COc2cccc3c2CCc2c-3[nH]c(=O)c(C#N)c2-c2ccc(C(=O)O)cc2)cc1`: the pKa in series [3] turned out to be 4.4. This compound also had an IC50 in series [1] of 1 nM. Besides, the minimum inhibitory concentration (MIC) in series [4] is > 32 µg/mL.
As for `CSc1cc(-c2cccc(Cl)c2)[nH]c(=O)c1C(N)=O`, inhibition in series [1] was half-maximal at 14300 nM (IC50).
Turning to `CSc1cc(-c2ccccc2)nc(O)c1C#N`, in series [1], the IC50 came to 1900 nM.
`N#Cc1c(-c2ccc(C(=O)O)cc2)c2c([nH]c1=O)-c1cccc(O)c1CC2`: the result in series [2] was inactive. In addition, the pKa in series [3] amounted to 4.4. Further, in series [1], inhibition was half-maximal at 3 nM (IC50). The MIC in series [4] was > 32 µg/mL.
The compound `CSc1cc(-c2ccccn2)[nH]c(=O)c1C#N` came in with an IC50 in series [1] of 18000 nM.
Turning to `CCc1cc2[nH]c(=O)c(C#N)c(-c3ccccc3)c2c(C)n1`, inhibition in series [1] was half-maximal at 350 nM (IC50). Further, the MIC in series [4] was > 32 µg/mL.
`COc1cccc(-c2cc(-c3ccc(NC(C)=O)cc3)c(C#N)c(=O)[nH]2)c1`: in series [1], it took 430 nM to reach half-maximal inhibition (IC50).
Consider `CC(C)c1ccc(COc2cccc(-c3cc([S+](C)[O-])c(C#N)c(=O)[nH]3)c2)cc1` (stereo not given), for which, in series [1], the midpoint of inhibition, the IC50, lay at 32 nM. For the same compound, the MIC in series [4] worked out at 2 µg/mL (≈ 4.92 µM).
Consider `COc1cccc(-c2cc(-c3cccc(N)c3)c(C#N)c(=O)[nH]2)c1`, for which, in series [1], the IC50 was 1200 nM.
